From US8222419B2, “Oxepin derivative” (Nippon Zoki Pharmaceutical Co., Ltd., priority 2006, dated 2012)
Where two headings read alike, the source gives them in different places.

Columns and labels:
[1] = tested on: histamine-induced vascular hyperpermeability; test: Rat histamine-induced vascular hyperpermeability reaction (in vivo antihistamine action); details: SD male rat, oral administration 1 hour before intracutaneous histamine (20 μg/location), Evans Blue leakage after 30 minutes
Protocol: Rat Histamine-Induced Vascular Hyperpermeability Reaction (in Vivo Antihistamine Action)
An SD male rat (SPF) of 180 g in weight was previously fed for one week or more by allowing the rat to take a solid feed and tap water ad libitum, under the environment setting of a temperature of 22° C., humidity of 55% and an artificial illumination of 12 hours a day (light phase 8 am to 8 pm), and the rat was fasted overnight to be used for the experiment. Histamine-dihydrochloride (hereinafter referred to as histamine) and Evans Blue were used by dissolving each in physiological saline upon use. A substance to be tested was dissolved in water for injection or suspended in 0.5% carboxymethyl cellulose sodium, and the rat was orally administered with the solution or suspension (dose volume: 5 mL/kg body weight). After 1 hour from the administration, the physiological saline and the histamine solution were each intracutaneously injected to two locations (20 μg/0.05 ml/location) each on a back part of the rat of which hair was sheared with an electric clipper while anesthetizing with an ether. A 0.5% Evans Blue-containing physiological saline was injected intravenously to the tail (1 mL/200 g body weight) of the rat immediately before the intracutaneous injection of the histamine.
After 30 minutes, the animal was decapitated, and allowed to bleed lethally, and the skin was removed to measure an amount of leaked pigment in the blue-stained portion. The measurement of the amount of leaked pigment was carried out as follows. Skins of the pigment leaking site were cut out at two locations, 1 mL of a 2 mol/L aqueous potassium hydroxide solution was added thereto in a test tube, and the test tube was allowed to stand overnight at 37° C. to dissolve. Thereafter, 6 mL of a 1:3 mixed solution of 0.67 mol/L phosphoric acid and acetone was added to the solution, and the mixture was vigorously shaken for 10 minutes. Thereafter, the mixture was filtered, and the absorbance of the filtrate at 620 nm was measured. The absorbance obtained from the two locations of the sites injected with physiological saline, obtained as blank value, was used for a compensation. The amount of leaked pigment was calculated from the calibration curve of Evans Blue at 620 nm.

[2] = biological target: T1, H1 receptor (Mus musculus, UniProt P70174); test: Murine intracranial H1 receptor content (ex vivo), 3H-pyrilamine binding in brain homogenate after oral dosing; details: for ID50 (mg/kg)/ED50 (mg/kg): ID50 of intracranial receptor binding test (Table 7) divided by ED50 of histamine-induced vascular hyperpermeability test (Table 6); for ED50: mouse
T1 construct: The excised brain tissue was homogenized with Polytron; from tissue; host or cells: entire brain except cerebellum and medulla oblongata, homogenate
T1 sequence (P70174 whole entry): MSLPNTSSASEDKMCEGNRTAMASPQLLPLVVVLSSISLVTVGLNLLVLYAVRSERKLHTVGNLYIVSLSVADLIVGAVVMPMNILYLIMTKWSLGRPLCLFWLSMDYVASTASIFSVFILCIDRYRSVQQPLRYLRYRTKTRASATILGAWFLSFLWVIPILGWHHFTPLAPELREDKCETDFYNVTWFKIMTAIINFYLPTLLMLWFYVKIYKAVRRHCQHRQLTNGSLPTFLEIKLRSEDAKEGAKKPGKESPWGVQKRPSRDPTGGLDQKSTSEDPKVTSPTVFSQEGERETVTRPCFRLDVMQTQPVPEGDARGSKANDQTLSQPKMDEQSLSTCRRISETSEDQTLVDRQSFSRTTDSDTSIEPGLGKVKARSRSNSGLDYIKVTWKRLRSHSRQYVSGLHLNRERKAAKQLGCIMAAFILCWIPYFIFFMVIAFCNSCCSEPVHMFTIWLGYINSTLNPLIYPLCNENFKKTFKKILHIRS

[3] = oral administration, brain excised after 1 hour, 3H-pyrilamine 2 nmol/L binding to brain homogenate, read-out: ID50 (the source's name)

| melting point | SMILES | other results |
| --- | --- | --- |
| 140 °C (dec.) | CN1CCC(=C2c3ccccc3COc3ccc(CN)cc32)CC1.Cl.Cl | – |
| 270 °C (dec.) | CCOC(=O)c1ccc2c(c1)C(=C1CCN(C)CC1)c1ccccc1CO2.Cl | – |
| 118 °C (dec.) | CN1CCC(=C2c3ccccc3COc3ccc(C=CCO)cc32)CC1.Cl | – |
| 244 °C (dec.) | COC(=O)C=Cc1ccc2c(c1)C(=C1CCN(C)CC1)c1ccccc1CO2.Cl | – |
| – | CN1CCC(=C2c3ccccc3COc3ccc(C(=O)O)cc32)CC1 [Compound 1, 11-(1-Methylpiperidin-4-ylidene)-6,11-dihydrodibenz[b,e]oxepin-2-carboxylic acid] | ED50 [1]: 0.046 mg/kg; ID50 (mg/kg)/ED50 (mg/kg) [2]: 27.2; ED50 [2, 3]: 1.25 mg/kg |
| 175 to 178 °C | CCOC(=O)CNC(=O)c1ccc2c(c1)C(=C1CCN(C)CC1)c1ccccc1CO2 [Compound 3, Ethyl {[11-(1-methylpiperidin-4-ylidene)-6,11-dihydrodibenz[b,e]oxepin-2-carbonyl]amino}acetate] | – |
| 131 to 132 °C | CN1CCC(=C2c3ccccc3COc3ccc(Br)cc32)CC1 [Compound 4, 4-(2-Bromo-6H-dibenz[b,e]oxepin-11-ylidene)-1-methylpiperidine] | – |
| 145 °C (dec.) | CN1CCC(=C2c3ccccc3COc3ccc(C=CC(=O)O)cc32)CC1 [Compound 7, 3-[11-(1-Methylpiperidin-4-ylidene)-6,11-dihydrodibenz[b,e]oxepin-2-yl]acrylic acid] | ED50 [1]: 0.3 mg/kg; ID50 (mg/kg)/ED50 (mg/kg) [2]: 4.4; ED50 [2, 3]: 1.32 mg/kg |
| 225 °C (dec.) | CN1CCC(=C2c3ccccc3COc3ccc(-c4nn[nH]n4)cc32)CC1 [Compound 8, 1-Methyl-4-[2-(2H-tetrazol-5-yl)-6H-dibenz[b,e]oxepin-11-ylidene]piperidine] | – |
| 145 to 148 °C | CN1CCC(=C2c3ccccc3COc3ccc(CNC(=O)OC(C)(C)C)cc32)CC1 [Compound 9, tert-Butyl [11-(1-methylpiperidin-4-ylidene)-6,11-dihydrodibenz[b,e]oxepin-2-ylmethyl]carbamate] | – |
| 127 to 128 °C | CN1CCC(=C2c3ccccc3COc3cc(Br)ccc32)CC1 [Compound 12, 4-(3-Bromo-6H-dibenz[b,e]oxepin-11-ylidene)-1-methylpiperidine] | – |
| 175 to 176 °C | CN1CCC(=C2c3ccccc3COc3cc(C#N)ccc32)CC1 [Compound 13, 11-(1-Methylpiperidin-4-ylidene)-6,11-dihydrodibenz[b,e]oxepin-3-carbonitrile] | – |
| 135 to 136 °C | CCOC(=O)NCc1ccc2c(c1)C(=C1CCN(C)CC1)c1ccccc1CO2 [Compound 14, Ethyl [11-(1-methylpiperidin-4-ylidene)-6,11-dihydrodibenz[b,e]oxepin-2-ylmethyl]carbamate] | – |
| 195 to 196 °C | CC(=O)NCc1ccc2c(c1)C(=C1CCN(C)CC1)c1ccccc1CO2 [Compound 15, N-[11-(1-Methylpiperidin-4-ylidene)-6,11-dihydrodibenz[b,e]oxepin-2-ylmethyl]acetamide] | – |
| 133 to 134 °C | Cc1ccc2c(c1)C(=C1CCN(C)CC1)c1ccccc1CO2 [Compound 16, 1-Methyl-4-(2-methyl-6H-dibenz[b,e]oxepin-11-ylidene)-piperidine] | – |
| 183 °C (dec.) | CN1CCC(=C2c3ccccc3COc3ccc(NC(N)=O)cc32)CC1 [Compound 17, [11-(1-Methylpiperidin-4-ylidene)-6,11-dihydrodibenz[b,e]oxepin-2-yl]urea] | ED50 [1]: 0.62 mg/kg; ID50 (mg/kg)/ED50 (mg/kg) [2]: 60.6; ED50 [2, 3]: 37.6 mg/kg |
| 208 to 212 °C | CN1CCC(=C2c3ccccc3COc3cc(C(=O)O)ccc32)CC1 [Compound 18, 11-(1-Methylpiperidin-4-ylidene)-6,11-dihydrodibenz[b,e]oxepin-3-carboxylic acid] | – |
| 234 to 236 °C | CN1CCC(=C2c3ccccc3COc3ccc(C(=O)NCCO)cc32)CC1 [Compound 19, N-(2-Hydroxyethyl)-11-(1-methylpiperidin-4-ylidene)-6,11-dihydrodibenz[b,e]oxepin-2-carboxamide] | – |

| melting point | SMILES | other results |
| --- | --- | --- |
| 218 to 219 °C | CN1CCC(=C2c3ccccc3COc3ccc(CNC(=O)c4ccccc4)cc32)CC1 [Compound 20, N-[11-(1-Methylpiperidin-4-ylidene)-6,11-dihydrodibenz[b,e]oxepin-2-ylmethyl]benzamide] | – |
| 140 to 143 °C | CN1CCC(=C2c3ccccc3COc3ccc(CO)cc32)CC1 [Compound 21, [11-(1-Methylpiperidin-4-ylidene)-6,11-dihydrodibenz[b,e]oxepin-2-yl]methanol] | – |
| 157 to 160 °C | CN1CCC(=C2c3ccccc3COc3ccc(C=O)cc32)CC1 [Compound 23, 11-(1-Methylpiperidin-4-ylidene)-6,11-dihydrodibenz[b,e]oxepin-2-carboaldehyde] | – |
| 226 °C (dec.) | CN1CCC(=C2c3ccccc3COc3ccc(CC(=O)O)cc32)CC1 [Compound 24, [11-(1-Methylpiperidin-4-ylidene)-6,11-dihydrodibenz[b,e]oxepin-2-yl]acetic acid] | ED50 [1]: 0.03 mg/kg; ID50 (mg/kg)/ED50 (mg/kg) [2]: 53.3; ED50 [2, 3]: 1.6 mg/kg |
| 144 °C (dec.) | CN1CCC(=C2c3ccccc3COc3ccc(CNC(=O)CCC(=O)O)cc32)CC1 [Compound 26, N-[11-(1-Methylpiperidin-4-ylidene)-6,11-dihydrodibenz[b,e]oxepin-2-ylmethyl]succinamic acid] | – |
| 150 to 152 °C | CCOC(=O)CCC(=O)NCc1ccc2c(c1)C(=C1CCN(C)CC1)c1ccccc1CO2 [Compound 27, Ethyl N-[11-(1-methylpiperidin-4-ylidene)-6,11-dihydrodibenz[b,e]oxepin-2-ylmethyl]succinamate] | – |
| 251 °C (dec.) | CN1CCC(=C2c3cc(C(=O)O)ccc3COc3ccccc32)CC1 [Compound 28, 11-(1-Methylpiperidin-4-ylidene)-6,11-dihydrodibenz[b,e]oxepin-9-carboxylic acid] | – |
| 124 °C (dec.) | CCOC(=O)c1ccc2c(c1)C(=C1CCN(C)CC1)c1ccccc1OC2 [Compound 29, Ethyl 11-(1-methylpiperidin-4-ylidene)-6,11-dihydrodibenz[b,e]oxepin-9-carboxylate] | – |
| 126 to 127 °C | CCOC(=O)C=Cc1cccc2c1OCc1ccccc1C2=C1CCN(C)CC1 [Compound 31, Ethyl 3-[11-(1-methylpiperidin-4-ylidene)-6,11-dihydrodibenz[b,e]oxepin-4-yl]acrylate] | – |
| 188 °C (dec.) | CN1CCC(=C2c3ccccc3COc3c(C=CC(=O)O)cccc32)CC1 [Compound 32, 3-[11-(1-Methylpiperidin-4-ylidene)-6,11-dihydrodibenz[b,e]oxepin-4-yl]acrylic acid] | – |
| 210 °C (dec.) | CN1CCC(=C2c3ccc(C(=O)O)cc3COc3ccccc32)CC1 [Compound 33, 11-(1-Methylpiperidin-4-ylidene)-6,11-dihydrodibenz[b,e]oxepin-8-carboxylic acid] | – |
| 175 to 178 °C | CN1CCC(=C2c3ccccc3COc3c(C#N)cccc32)CC1 [Compound 34, 11-(1-Methylpiperidin-4-ylidene)-6,11-dihydrodibenz[b,e]oxepin-4-carbonitrile] | – |
| 173 to 175 °C | CCOC(=O)C=Cc1ccc2c(c1)OCc1ccccc1C2=C1CCN(C)CC1 [Compound 35, Ethyl 3-[11-(1-methylpiperidin-4-ylidene)-6,11-dihydrodibenz[b,e]oxepin-3-yl]acrylate] | – |
| 124 °C (dec.) | CCOC(=O)c1cccc2c1OCc1ccccc1C2=C1CCN(C)CC1 [Compound 36, Ethyl 11-(1-methylpiperidin-4-ylidene)-6,11-dihydrodibenz[b,e]oxepin-4-carboxylate] | – |
| 233 °C (dec.) | CN1CCC(=C2c3ccccc3COc3c(C(=O)O)cccc32)CC1 [Compound 37, 11-(1-Methylpiperidin-4-ylidene)-6,11-dihydrodibenz[b,e]oxepin-4-carboxylic acid] | – |
| – | CN1CCC(=C2c3ccccc3COc3ccc(CCC(=O)O)cc32)CC1.Cl [Compound 43, 3-[11-(1-Methylpiperidin-4-ylidene)-6,11-dihydrodibenz[b,e]oxepin-2-yl]propionate hydrochloride] | ED50 [1]: 0.1 mg/kg; ID50 (mg/kg)/ED50 (mg/kg) [2]: >20.0; ED50 ([2]; po, 1 h, read-out: ID50): < 2 mg/kg |
| – | CN1CCC(=C2c3ccccc3CC(=O)c3sccc32)CC1 [Ketotifen, reference compound] | ED50 [1]: 0.54 mg/kg |
